From the kinase profiling compilation of Christmann-Franck et al. (2016)

Key:
Test in all cases: KINOMEscan competition binding
Conditions in all cases: compound 10.0 µM
PAK2 (human) = PAK2 (human) (UniProt Q13177)
NLK (human) = NLK (human) (UniProt Q9UBE8)
PRKACA (human) = PRKACA (human) (UniProt P17612)
[1] = target: TYK2 JH1 catalytic (human) (UniProt P29597)
FLT4 (human) = FLT4 (human) (UniProt P35916)
PIP5K1C (human) = PIP5K1C (human) (UniProt O60331)
GRK4 (human) = GRK4 (human) (UniProt P32298)
TNK2 (human) = TNK2 (human) (UniProt Q07912)
CAMKK2 (human) = CAMKK2 (human) (UniProt Q96RR4)
DYRK2 (human) = DYRK2 (human) (UniProt Q92630)
RPS6KA2 KD1 (human) = RPS6KA2 KD1 (human) (UniProt Q15349)
MYLK4 (human) = MYLK4 (human) (UniProt Q86YV6)
CDK8 (human) = CDK8 (human) (UniProt P49336)
CAMKK1 (human) = CAMKK1 (human) (UniProt Q8N5S9)
Chain of CAMKK1 (human) (Q8N5S9 whole entry, looked up): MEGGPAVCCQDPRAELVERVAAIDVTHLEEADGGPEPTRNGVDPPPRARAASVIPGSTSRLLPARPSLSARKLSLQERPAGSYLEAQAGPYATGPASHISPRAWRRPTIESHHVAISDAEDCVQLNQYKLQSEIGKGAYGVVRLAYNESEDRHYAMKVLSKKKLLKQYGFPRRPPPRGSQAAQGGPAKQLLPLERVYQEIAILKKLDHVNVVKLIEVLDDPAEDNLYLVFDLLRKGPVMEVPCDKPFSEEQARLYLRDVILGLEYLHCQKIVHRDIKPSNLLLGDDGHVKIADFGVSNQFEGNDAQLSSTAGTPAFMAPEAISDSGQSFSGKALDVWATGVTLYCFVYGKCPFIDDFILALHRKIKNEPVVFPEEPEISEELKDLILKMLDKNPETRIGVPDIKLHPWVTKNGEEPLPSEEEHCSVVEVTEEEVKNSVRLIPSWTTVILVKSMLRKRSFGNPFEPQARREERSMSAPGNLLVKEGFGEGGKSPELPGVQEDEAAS

MAPKAPK5 (human) = MAPKAPK5 (human) (UniProt Q8IW41)
[2] = target: JAK1 JH2 pseudokinase (human) (UniProt P23458)
DMPK (human) = DMPK (human) (UniProt Q09013)
MARK1 (human) = MARK1 (human) (UniProt Q9P0L2)
AURKA (human) = AURKA (human) (UniProt O14965)
MST4 (human) = MST4 (human) (UniProt Q9P289)
MAP3K5 (human) = MAP3K5 (human) (UniProt Q99683)
MAPK9 (human) = MAPK9 (human) (UniProt P45984)
[3] = test system: PIK3CA (human), P42336 [C420R]
MUSK (human) = MUSK (human) (UniProt O15146)
MARK4 (human) = MARK4 (human) (UniProt Q96L34)
[4] = test system: FLT3 (human), P36888 [D835Y]
MYLK (human) = MYLK (human) (UniProt Q15746)
TEC (human) = TEC (human) (UniProt P42680)
AKT1 (human) = AKT1 (human) (UniProt P31749)
MAPK11 (human) = MAPK11 (human) (UniProt Q15759)
GRK1 (human) = GRK1 (human) (UniProt Q15835)
LATS1 (human) = LATS1 (human) (UniProt O95835)
[5] = test system: EGFR (human), P00533 [752-759 del]
Chain of EGFR (human), P00533 [752-759 del] (P00533 whole entry, looked up, stated change not applied): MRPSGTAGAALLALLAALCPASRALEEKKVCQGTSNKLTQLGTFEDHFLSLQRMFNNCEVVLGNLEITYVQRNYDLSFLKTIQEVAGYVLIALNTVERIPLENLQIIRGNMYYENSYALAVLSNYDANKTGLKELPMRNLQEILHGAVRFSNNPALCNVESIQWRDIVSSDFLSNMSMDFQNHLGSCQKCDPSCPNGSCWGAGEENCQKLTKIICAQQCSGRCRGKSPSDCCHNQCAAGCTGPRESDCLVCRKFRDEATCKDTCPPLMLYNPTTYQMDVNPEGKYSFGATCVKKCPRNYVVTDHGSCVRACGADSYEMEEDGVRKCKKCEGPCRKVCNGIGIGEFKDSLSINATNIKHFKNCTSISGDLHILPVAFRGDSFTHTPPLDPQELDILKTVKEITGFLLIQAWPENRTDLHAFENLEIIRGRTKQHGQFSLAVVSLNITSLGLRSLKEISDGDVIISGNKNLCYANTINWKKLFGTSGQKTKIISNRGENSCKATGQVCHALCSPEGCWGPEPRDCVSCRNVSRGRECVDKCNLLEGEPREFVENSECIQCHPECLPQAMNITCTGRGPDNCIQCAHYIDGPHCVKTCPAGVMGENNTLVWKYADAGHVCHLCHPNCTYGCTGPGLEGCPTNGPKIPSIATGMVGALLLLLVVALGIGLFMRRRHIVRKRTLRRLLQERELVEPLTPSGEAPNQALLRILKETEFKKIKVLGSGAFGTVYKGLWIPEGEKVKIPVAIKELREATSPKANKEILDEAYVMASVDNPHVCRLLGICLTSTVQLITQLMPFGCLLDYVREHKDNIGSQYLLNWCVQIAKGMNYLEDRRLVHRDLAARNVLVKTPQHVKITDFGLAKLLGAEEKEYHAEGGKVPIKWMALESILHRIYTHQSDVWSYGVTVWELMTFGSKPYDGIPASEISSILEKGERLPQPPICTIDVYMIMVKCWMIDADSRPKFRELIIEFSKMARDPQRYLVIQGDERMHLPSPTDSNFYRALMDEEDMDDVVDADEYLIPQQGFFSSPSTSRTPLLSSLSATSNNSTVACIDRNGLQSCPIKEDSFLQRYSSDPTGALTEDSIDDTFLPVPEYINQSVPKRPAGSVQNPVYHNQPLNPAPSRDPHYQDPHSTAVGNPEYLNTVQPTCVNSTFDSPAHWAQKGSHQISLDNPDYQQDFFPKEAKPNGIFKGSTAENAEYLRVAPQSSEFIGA

DYRK1A (human) = DYRK1A (human) (UniProt Q13627)
MAP3K1 (human) = MAP3K1 (human) (UniProt Q13233)
PRKG1 (human) = PRKG1 (human) (UniProt Q13976)
ERBB2 (human) = ERBB2 (human) (UniProt P04626)
Chain of ERBB2 (human) (P04626 whole entry, looked up): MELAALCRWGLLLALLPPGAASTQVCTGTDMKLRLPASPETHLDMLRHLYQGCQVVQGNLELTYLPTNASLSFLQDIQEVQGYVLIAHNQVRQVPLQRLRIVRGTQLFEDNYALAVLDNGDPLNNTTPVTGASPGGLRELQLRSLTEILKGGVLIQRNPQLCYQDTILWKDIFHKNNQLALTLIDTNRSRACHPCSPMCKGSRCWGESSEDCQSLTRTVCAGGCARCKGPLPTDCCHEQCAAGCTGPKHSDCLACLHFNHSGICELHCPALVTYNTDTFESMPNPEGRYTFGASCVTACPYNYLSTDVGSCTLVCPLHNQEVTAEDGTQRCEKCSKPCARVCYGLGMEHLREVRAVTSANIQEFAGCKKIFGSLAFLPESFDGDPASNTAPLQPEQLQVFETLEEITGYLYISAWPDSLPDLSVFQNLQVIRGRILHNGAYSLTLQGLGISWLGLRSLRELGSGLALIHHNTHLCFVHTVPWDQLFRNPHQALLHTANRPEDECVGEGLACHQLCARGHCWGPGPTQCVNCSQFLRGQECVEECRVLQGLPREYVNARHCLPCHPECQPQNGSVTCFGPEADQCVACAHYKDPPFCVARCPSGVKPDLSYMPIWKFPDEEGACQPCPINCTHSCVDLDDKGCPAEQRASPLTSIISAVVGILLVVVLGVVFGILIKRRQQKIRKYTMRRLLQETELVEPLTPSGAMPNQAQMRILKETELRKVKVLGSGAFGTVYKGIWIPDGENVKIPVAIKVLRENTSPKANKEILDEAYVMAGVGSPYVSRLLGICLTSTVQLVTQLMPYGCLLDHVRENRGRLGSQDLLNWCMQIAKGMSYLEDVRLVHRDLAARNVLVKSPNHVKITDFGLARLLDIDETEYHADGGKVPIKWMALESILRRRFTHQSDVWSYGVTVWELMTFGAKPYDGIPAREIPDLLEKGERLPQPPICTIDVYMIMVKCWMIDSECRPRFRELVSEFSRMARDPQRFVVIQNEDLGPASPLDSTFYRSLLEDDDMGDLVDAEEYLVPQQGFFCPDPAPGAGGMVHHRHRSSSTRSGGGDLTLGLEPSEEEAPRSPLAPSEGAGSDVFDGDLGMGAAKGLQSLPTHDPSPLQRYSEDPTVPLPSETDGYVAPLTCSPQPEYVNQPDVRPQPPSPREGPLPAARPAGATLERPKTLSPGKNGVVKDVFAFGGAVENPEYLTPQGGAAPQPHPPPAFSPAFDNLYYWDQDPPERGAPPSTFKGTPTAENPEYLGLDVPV

ACVR2B (human) = ACVR2B (human) (UniProt Q13705)
Chain of ACVR2B (human) (Q13705 whole entry, looked up): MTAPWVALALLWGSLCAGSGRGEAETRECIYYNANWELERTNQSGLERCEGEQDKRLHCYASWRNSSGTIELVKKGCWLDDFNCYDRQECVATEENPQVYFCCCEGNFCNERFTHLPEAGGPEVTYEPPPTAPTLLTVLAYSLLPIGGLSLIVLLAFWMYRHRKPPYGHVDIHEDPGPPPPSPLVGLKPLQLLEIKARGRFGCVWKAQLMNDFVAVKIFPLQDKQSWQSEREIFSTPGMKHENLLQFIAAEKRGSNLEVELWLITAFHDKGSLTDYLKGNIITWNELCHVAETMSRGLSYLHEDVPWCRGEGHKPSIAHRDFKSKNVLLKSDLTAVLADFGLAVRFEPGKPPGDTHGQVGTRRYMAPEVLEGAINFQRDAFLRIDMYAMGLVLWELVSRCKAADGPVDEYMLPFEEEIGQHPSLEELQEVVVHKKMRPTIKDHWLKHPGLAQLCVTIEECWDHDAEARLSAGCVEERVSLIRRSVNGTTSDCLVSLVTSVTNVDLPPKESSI

MAPK13 (human) = MAPK13 (human) (UniProt O15264)
CDK4 CCND3 (human) = CDK4 CCND3 (human) (UniProt P11802+P30281)
NEK4 (human) = NEK4 (human) (UniProt P51957)
Chain of NEK4 (human) (P51957 whole entry, looked up): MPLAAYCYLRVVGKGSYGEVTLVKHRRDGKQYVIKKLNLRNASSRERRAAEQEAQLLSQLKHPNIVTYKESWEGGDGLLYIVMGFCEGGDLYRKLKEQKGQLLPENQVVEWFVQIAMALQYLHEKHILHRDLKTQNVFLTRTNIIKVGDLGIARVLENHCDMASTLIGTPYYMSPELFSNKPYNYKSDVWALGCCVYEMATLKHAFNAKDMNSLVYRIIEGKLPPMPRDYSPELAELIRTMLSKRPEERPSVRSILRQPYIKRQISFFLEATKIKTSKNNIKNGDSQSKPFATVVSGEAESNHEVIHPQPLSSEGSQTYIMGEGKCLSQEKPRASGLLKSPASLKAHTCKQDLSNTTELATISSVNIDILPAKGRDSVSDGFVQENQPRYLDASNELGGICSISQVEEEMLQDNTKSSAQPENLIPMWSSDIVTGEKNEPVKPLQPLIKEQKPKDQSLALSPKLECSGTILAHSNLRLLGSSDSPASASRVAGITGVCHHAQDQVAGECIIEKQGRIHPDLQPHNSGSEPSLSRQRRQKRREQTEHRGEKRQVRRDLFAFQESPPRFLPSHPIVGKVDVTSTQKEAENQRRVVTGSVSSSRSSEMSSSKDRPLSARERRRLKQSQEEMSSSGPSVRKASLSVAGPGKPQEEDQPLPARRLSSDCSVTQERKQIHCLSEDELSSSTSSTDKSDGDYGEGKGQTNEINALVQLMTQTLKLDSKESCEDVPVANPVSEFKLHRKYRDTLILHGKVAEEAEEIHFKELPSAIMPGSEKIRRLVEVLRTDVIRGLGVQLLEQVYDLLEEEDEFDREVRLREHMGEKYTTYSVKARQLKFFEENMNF

Chain of PAK2 (human) (Q13177 whole entry, looked up): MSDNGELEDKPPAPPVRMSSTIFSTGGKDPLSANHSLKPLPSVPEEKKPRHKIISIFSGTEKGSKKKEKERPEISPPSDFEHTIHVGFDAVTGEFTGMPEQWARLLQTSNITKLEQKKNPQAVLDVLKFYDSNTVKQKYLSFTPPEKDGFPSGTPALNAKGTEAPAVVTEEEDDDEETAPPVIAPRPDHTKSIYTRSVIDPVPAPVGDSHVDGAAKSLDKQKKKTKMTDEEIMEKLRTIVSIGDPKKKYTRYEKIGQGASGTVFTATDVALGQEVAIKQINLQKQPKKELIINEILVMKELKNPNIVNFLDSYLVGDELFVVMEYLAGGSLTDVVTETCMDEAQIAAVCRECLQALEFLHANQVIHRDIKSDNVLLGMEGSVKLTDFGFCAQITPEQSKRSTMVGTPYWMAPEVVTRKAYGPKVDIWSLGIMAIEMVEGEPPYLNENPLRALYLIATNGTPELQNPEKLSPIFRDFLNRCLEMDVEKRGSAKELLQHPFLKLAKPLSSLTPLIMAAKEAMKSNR

For `CCC(=O)N1CCN(c2ccc(-n3c(=O)ccc4cnc5ccc(-c6cnc7ccccc7c6)cc5c43)cc2C(F)(F)F)CC1`, the kinase still bound, per cent of control (PAK2 (human)) was 100%, the kinase still bound, per cent of control (NLK (human)) was 25% and the per cent of control (PRKACA (human)) was 79%. It also gave a kinase still bound, per cent of control [1] of 70%, a kinase still bound, per cent of control (FLT4 (human)) of 74% and a kinase still bound, per cent of control (PIP5K1C (human)) of 80%. It also gave a kinase still bound, per cent of control (GRK4 (human)) of 90%, a kinase still bound, per cent of control (TNK2 (human)) of 51% and a kinase still bound, per cent of control (CAMKK2 (human)) of 85%. For the same molecule, the kinase still bound, per cent of control (DYRK2 (human)) was 86%, the kinase still bound, per cent of control (RPS6KA2 KD1 (human)) was 100% and the kinase still bound, per cent of control (MYLK4 (human)) was 83%. It also gave a per cent of control (CDK8 (human)) of 4.6%, a kinase still bound, per cent of control (CAMKK1 (human)) of 80% and a kinase still bound, per cent of control (MAPKAPK5 (human)) of 100%. It also gave a kinase still bound, per cent of control [2] of 76%, a kinase still bound, per cent of control (DMPK (human)) of 77% and a kinase still bound, per cent of control (MARK1 (human)) of 100%. It also gave a kinase still bound, per cent of control (AURKA (human)) of 100%, a kinase still bound, per cent of control (MST4 (human)) of 89% and a kinase still bound, per cent of control (MAP3K5 (human)) of 100%. The kinase still bound, per cent of control (MAPK9 (human)) was 40%, the kinase still bound, per cent of control [3] was 0.7% and the kinase still bound, per cent of control (MUSK (human)) was 100%. For the same molecule, the kinase still bound, per cent of control (MARK4 (human)) was 100%, the kinase still bound, per cent of control [4] was 16% and the per cent of control (MYLK (human)) was 87%. For the same molecule, the kinase still bound, per cent of control (TEC (human)) was 99%, the kinase still bound, per cent of control (AKT1 (human)) was 91% and the kinase still bound, per cent of control (MAPK11 (human)) was 53%. It also gave a kinase still bound, per cent of control (GRK1 (human)) of 99%, a kinase still bound, per cent of control (LATS1 (human)) of 100% and a kinase still bound, per cent of control [5] of 84%. For the same molecule, the kinase still bound, per cent of control (DYRK1A (human)) was 71%, the kinase still bound, per cent of control (MAP3K1 (human)) was 92% and the kinase still bound, per cent of control (PRKG1 (human)) was 86%. For the same molecule, the kinase still bound, per cent of control (ERBB2 (human)) was 91%, the kinase still bound, per cent of control (ACVR2B (human)) was 42% and the kinase still bound, per cent of control (MAPK13 (human)) was 39%. It also gave a per cent of control (CDK4 CCND3 (human)) of 87% and a kinase still bound, per cent of control (NEK4 (human)) of 86%.
